The NIST ThermoML archive (doi:10.1021/je700260f)
Numbers after ± are expanded uncertainties.

Conditions: 313.15 K, Liquid, Vibrating tube method

FC(C(F)(F)F)C(F)(F)F [1,1,1,2,3,3,3-heptafluoropropane]
mass density (24813 kPa): 1470.8 ± 1.6 kg/m3
mass density (24848 kPa): 1470.8 ± 1.6 kg/m3
mass density (24899 kPa): 1471.1 ± 1.6 kg/m3
mass density (24951 kPa): 1471.3 ± 1.6 kg/m3
mass density (24991 kPa): 1471.5 ± 1.6 kg/m3
mass density (25031 kPa): 1471.7 ± 1.6 kg/m3
mass density (25225 kPa): 1472.4 ± 1.6 kg/m3
mass density (25266 kPa): 1472.5 ± 1.6 kg/m3
mass density (25303 kPa): 1472.6 ± 1.6 kg/m3
mass density (25346 kPa): 1472.9 ± 1.6 kg/m3
mass density (25382 kPa): 1473 ± 1.6 kg/m3
mass density (25428 kPa): 1473.2 ± 1.6 kg/m3
mass density (25464 kPa): 1473.3 ± 1.6 kg/m3
mass density (27024 kPa): 1479.1 ± 1.7 kg/m3
mass density (27078 kPa): 1479.5 ± 1.7 kg/m3
mass density (27113 kPa): 1479.5 ± 1.7 kg/m3
mass density (27168 kPa): 1479.8 ± 1.7 kg/m3
mass density (27215 kPa): 1479.9 ± 1.7 kg/m3
mass density (27250 kPa): 1480.2 ± 1.7 kg/m3
mass density (27333 kPa): 1480.4 ± 1.7 kg/m3
mass density (27378 kPa): 1480.4 ± 1.7 kg/m3
mass density (27415 kPa): 1480.8 ± 1.7 kg/m3
mass density (27452 kPa): 1480.9 ± 1.7 kg/m3
mass density (27512 kPa): 1481.1 ± 1.7 kg/m3
mass density (27562 kPa): 1481.4 ± 1.7 kg/m3
mass density (27616 kPa): 1481.6 ± 1.7 kg/m3
mass density (27789 kPa): 1482.1 ± 1.7 kg/m3
mass density (27894 kPa): 1482.6 ± 1.7 kg/m3
mass density (27923 kPa): 1482.7 ± 1.7 kg/m3
mass density (27959 kPa): 1482.7 ± 1.7 kg/m3
mass density (27997 kPa): 1482.8 ± 1.7 kg/m3
mass density (28031 kPa): 1483 ± 1.7 kg/m3
mass density (28065 kPa): 1483.1 ± 1.7 kg/m3
mass density (28094 kPa): 1483.2 ± 1.7 kg/m3
mass density (28137 kPa): 1483.5 ± 1.7 kg/m3
mass density (28166 kPa): 1483.6 ± 1.7 kg/m3
mass density (28213 kPa): 1483.6 ± 1.7 kg/m3
mass density (28253 kPa): 1483.8 ± 1.7 kg/m3
mass density (28282 kPa): 1484 ± 1.7 kg/m3
mass density (28311 kPa): 1484 ± 1.7 kg/m3
mass density (28349 kPa): 1484.3 ± 1.7 kg/m3
mass density (28389 kPa): 1484.3 ± 1.7 kg/m3
mass density (28424 kPa): 1484.5 ± 1.7 kg/m3
mass density (28465 kPa): 1484.6 ± 1.7 kg/m3
mass density (28499 kPa): 1484.8 ± 1.7 kg/m3
mass density (28538 kPa): 1484.9 ± 1.7 kg/m3
mass density (28567 kPa): 1485 ± 1.7 kg/m3
mass density (28613 kPa): 1485.2 ± 1.7 kg/m3
mass density (28643 kPa): 1485.2 ± 1.7 kg/m3
mass density (28674 kPa): 1485.3 ± 1.7 kg/m3
mass density (28717 kPa): 1485.6 ± 1.7 kg/m3
mass density (28761 kPa): 1485.7 ± 1.7 kg/m3
mass density (29100 kPa): 1487 ± 1.7 kg/m3
mass density (29135 kPa): 1487 ± 1.7 kg/m3
mass density (29166 kPa): 1487.2 ± 1.7 kg/m3
mass density (29208 kPa): 1487.3 ± 1.7 kg/m3
mass density (29239 kPa): 1487.5 ± 1.7 kg/m3
mass density (29269 kPa): 1487.5 ± 1.7 kg/m3
mass density (29305 kPa): 1487.6 ± 1.7 kg/m3
mass density (29341 kPa): 1487.9 ± 1.7 kg/m3
mass density (29381 kPa): 1487.9 ± 1.7 kg/m3
mass density (29416 kPa): 1488 ± 1.7 kg/m3
mass density (29450 kPa): 1488.1 ± 1.7 kg/m3
mass density (29496 kPa): 1488.3 ± 1.7 kg/m3
mass density (29525 kPa): 1488.6 ± 1.7 kg/m3
mass density (29570 kPa): 1488.6 ± 1.7 kg/m3
mass density (29610 kPa): 1488.7 ± 1.7 kg/m3
mass density (31429 kPa): 1495.1 ± 1.7 kg/m3
mass density (31477 kPa): 1495.4 ± 1.7 kg/m3
mass density (31513 kPa): 1495.4 ± 1.7 kg/m3
mass density (31554 kPa): 1495.6 ± 1.7 kg/m3
mass density (31782 kPa): 1496.5 ± 1.7 kg/m3
mass density (31819 kPa): 1496.4 ± 1.7 kg/m3
mass density (31856 kPa): 1496.6 ± 1.7 kg/m3
mass density (31894 kPa): 1496.7 ± 1.7 kg/m3
mass density (31931 kPa): 1496.9 ± 1.7 kg/m3
mass density (31964 kPa): 1497 ± 1.7 kg/m3
mass density (32008 kPa): 1497.3 ± 1.7 kg/m3
mass density (32040 kPa): 1497.3 ± 1.7 kg/m3
mass density (32094 kPa): 1497.4 ± 1.7 kg/m3
mass density (32170 kPa): 1497.7 ± 1.7 kg/m3
mass density (32235 kPa): 1497.9 ± 1.7 kg/m3
mass density (32288 kPa): 1498.1 ± 1.7 kg/m3
mass density (32326 kPa): 1498.2 ± 1.7 kg/m3
mass density (32700 kPa): 1499.5 ± 1.7 kg/m3
mass density (33062 kPa): 1500.7 ± 1.7 kg/m3
mass density (33127 kPa): 1500.8 ± 1.7 kg/m3
mass density (33176 kPa): 1501.1 ± 1.7 kg/m3
mass density (33220 kPa): 1501.2 ± 1.7 kg/m3
mass density (33258 kPa): 1501.4 ± 1.7 kg/m3
mass density (33290 kPa): 1501.5 ± 1.7 kg/m3
mass density (33332 kPa): 1501.7 ± 1.7 kg/m3
mass density (33375 kPa): 1501.7 ± 1.7 kg/m3
mass density (33408 kPa): 1501.8 ± 1.7 kg/m3
mass density (33462 kPa): 1501.9 ± 1.7 kg/m3
mass density (33502 kPa): 1502.1 ± 1.7 kg/m3
mass density (33551 kPa): 1502.5 ± 1.7 kg/m3
mass density (33585 kPa): 1502.3 ± 1.7 kg/m3
mass density (33640 kPa): 1502.6 ± 1.7 kg/m3
mass density (33684 kPa): 1502.6 ± 1.7 kg/m3
mass density (33729 kPa): 1502.8 ± 1.7 kg/m3
mass density (33763 kPa): 1503 ± 1.7 kg/m3
mass density (33807 kPa): 1503.2 ± 1.7 kg/m3
